# Experimental data: PubChem BioAssay (NCI)
#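 Briefly, cells in 96-well plates were exposed to five compound concentrations for 48 h, and endpoints were estimated by linear interpolation. Definition used: TGI = concentration required for complete inhibition of growth.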
# System: 786-0 renal
# Assay: NCI tumour cell line growth inhibition, 48 h
row,SMILES,TGI [µM]
1,CCN(CC)C1Oc2cc3c(cc2C(c2ccc(OC)cc2)C1C)OCO3 (configuration not stated),48

# System: T-47D breast
# Assay: NCI tumour cell line growth inhibition, 48 h
row,SMILES,TGI [µM]
1,CC1(C)CN=C(c2ccc3c(c2)Cc2cc(C4=NCC(C)(C)N4)ccc2-3)N1,> 100
2,COc1cc(OCc2nc3ccccc3n3cccc23)cc(OC)c1OC,> 100
3,CC(=O)C(I(OS(=O)(=O)c1ccc(C)cc1)c1ccccc1)=P(c1ccccc1)(c1ccccc1)c1ccccc1,85.3
4,ClC1(Cl)C(c2ccccc2)C1c1ccccc1 (configuration not stated),> 100
5,CN1C2CCC1CC(CCOC(c1ccc(F)cc1)c1ccc(F)cc1)C2 (configuration not stated),39.2
6,O=C(c1cc(Cl)cc(Cl)c1)N(C(=O)N1CCN(c2ccccc2)CC1)c1ccccc1,> 100
7,CCN(CC)C1Oc2cc3c(cc2C(c2ccc(OC)cc2)C1C)OCO3 (configuration not stated),77

# System: LOX IMVI melanoma
# Assay: NCI tumour cell line growth inhibition, 48 h
row,SMILES,TGI [µM]
1,CC1(C)CN=C(c2ccc3c(c2)Cc2cc(C4=NCC(C)(C)N4)ccc2-3)N1,> 100
2,COc1cc(OCc2nc3ccccc3n3cccc23)cc(OC)c1OC,> 100
3,ClC1(Cl)C(c2ccccc2)C1c1ccccc1 (configuration not stated),93
4,CN1C2CCC1CC(CCOC(c1ccc(F)cc1)c1ccc(F)cc1)C2 (configuration not stated),30.3
5,O=C(c1cc(Cl)cc(Cl)c1)N(C(=O)N1CCN(c2ccccc2)CC1)c1ccccc1,> 100
6,CCN(CC)C1Oc2cc3c(cc2C(c2ccc(OC)cc2)C1C)OCO3 (configuration not stated),34.1

# System: SF-539 CNS
# Assay: NCI tumour cell line growth inhibition, 48 h
row,SMILES,TGI [µM]
1,COc1cc(OCc2nc3ccccc3n3cccc23)cc(OC)c1OC,> 100
2,CC(=O)C(I(OS(=O)(=O)c1ccc(C)cc1)c1ccccc1)=P(c1ccccc1)(c1ccccc1)c1ccccc1,39.1
3,CN1C2CCC1CC(CCOC(c1ccc(F)cc1)c1ccc(F)cc1)C2 (configuration not stated),29.9
4,O=C(c1cc(Cl)cc(Cl)c1)N(C(=O)N1CCN(c2ccccc2)CC1)c1ccccc1,> 100
5,CCN(CC)C1Oc2cc3c(cc2C(c2ccc(OC)cc2)C1C)OCO3 (configuration not stated),40.1

# System: U251 CNS
# Assay: NCI tumour cell line growth inhibition, 48 h
row,SMILES,TGI [µM]
1,CC1(C)CN=C(c2ccc3c(c2)Cc2cc(C4=NCC(C)(C)N4)ccc2-3)N1,64.8
2,COc1cc(OCc2nc3ccccc3n3cccc23)cc(OC)c1OC,> 100
3,CC(=O)C(I(OS(=O)(=O)c1ccc(C)cc1)c1ccccc1)=P(c1ccccc1)(c1ccccc1)c1ccccc1,98.5
4,ClC1(Cl)C(c2ccccc2)C1c1ccccc1 (configuration not stated),> 100
5,CN1C2CCC1CC(CCOC(c1ccc(F)cc1)c1ccc(F)cc1)C2 (configuration not stated),28.1
6,O=C(c1cc(Cl)cc(Cl)c1)N(C(=O)N1CCN(c2ccccc2)CC1)c1ccccc1,> 100
7,CCN(CC)C1Oc2cc3c(cc2C(c2ccc(OC)cc2)C1C)OCO3 (configuration not stated),54.9

# System: SR leukemia
# Assay: NCI tumour cell line growth inhibition, 48 h
row,SMILES,TGI [µM]
1,CC1(C)CN=C(c2ccc3c(c2)Cc2cc(C4=NCC(C)(C)N4)ccc2-3)N1,> 100
2,ClC1(Cl)C(c2ccccc2)C1c1ccccc1 (configuration not stated),55.4
3,CN1C2CCC1CC(CCOC(c1ccc(F)cc1)c1ccc(F)cc1)C2 (configuration not stated),38.2
4,CCN(CC)C1Oc2cc3c(cc2C(c2ccc(OC)cc2)C1C)OCO3 (configuration not stated),27.6

# System: EKVX NSCLC
# Assay: NCI tumour cell line growth inhibition, 48 h
row,SMILES,TGI [µM]
1,CC1(C)CN=C(c2ccc3c(c2)Cc2cc(C4=NCC(C)(C)N4)ccc2-3)N1,> 100
2,COc1cc(OCc2nc3ccccc3n3cccc23)cc(OC)c1OC,> 62.7
3,CC(=O)C(I(OS(=O)(=O)c1ccc(C)cc1)c1ccccc1)=P(c1ccccc1)(c1ccccc1)c1ccccc1,70.8
4,ClC1(Cl)C(c2ccccc2)C1c1ccccc1 (configuration not stated),53.1
5,CN1C2CCC1CC(CCOC(c1ccc(F)cc1)c1ccc(F)cc1)C2 (configuration not stated),27.7
6,O=C(c1cc(Cl)cc(Cl)c1)N(C(=O)N1CCN(c2ccccc2)CC1)c1ccccc1,> 100
7,CCN(CC)C1Oc2cc3c(cc2C(c2ccc(OC)cc2)C1C)OCO3 (configuration not stated),49.9

# System: NCI-H226 lung
# Assay: NCI tumour cell line growth inhibition, 48 h
row,SMILES,TGI [µM]
1,CC1(C)CN=C(c2ccc3c(c2)Cc2cc(C4=NCC(C)(C)N4)ccc2-3)N1,> 100
2,COc1cc(OCc2nc3ccccc3n3cccc23)cc(OC)c1OC,52.4
3,CC(=O)C(I(OS(=O)(=O)c1ccc(C)cc1)c1ccccc1)=P(c1ccccc1)(c1ccccc1)c1ccccc1,38.8
4,ClC1(Cl)C(c2ccccc2)C1c1ccccc1 (configuration not stated),33.9
5,CN1C2CCC1CC(CCOC(c1ccc(F)cc1)c1ccc(F)cc1)C2 (configuration not stated),29.1
6,O=C(c1cc(Cl)cc(Cl)c1)N(C(=O)N1CCN(c2ccccc2)CC1)c1ccccc1,> 100
7,CCN(CC)C1Oc2cc3c(cc2C(c2ccc(OC)cc2)C1C)OCO3 (configuration not stated),54.7

# System: DU-145 prostate
# Assay: NCI tumour cell line growth inhibition, 48 h
row,SMILES,TGI [µM]
1,CC1(C)CN=C(c2ccc3c(c2)Cc2cc(C4=NCC(C)(C)N4)ccc2-3)N1,> 100
2,COc1cc(OCc2nc3ccccc3n3cccc23)cc(OC)c1OC,> 100
3,CC(=O)C(I(OS(=O)(=O)c1ccc(C)cc1)c1ccccc1)=P(c1ccccc1)(c1ccccc1)c1ccccc1,58.7
4,ClC1(Cl)C(c2ccccc2)C1c1ccccc1 (configuration not stated),> 100
5,CN1C2CCC1CC(CCOC(c1ccc(F)cc1)c1ccc(F)cc1)C2 (configuration not stated),33.5
6,O=C(c1cc(Cl)cc(Cl)c1)N(C(=O)N1CCN(c2ccccc2)CC1)c1ccccc1,> 100
7,CCN(CC)C1Oc2cc3c(cc2C(c2ccc(OC)cc2)C1C)OCO3 (configuration not stated),76.4

# System: SK-MEL-2 melanoma
# Assay: NCI tumour cell line growth inhibition, 48 h
row,SMILES,TGI [µM]
1,CC1(C)CN=C(c2ccc3c(c2)Cc2cc(C4=NCC(C)(C)N4)ccc2-3)N1,49.9
2,COc1cc(OCc2nc3ccccc3n3cccc23)cc(OC)c1OC,> 100
3,CC(=O)C(I(OS(=O)(=O)c1ccc(C)cc1)c1ccccc1)=P(c1ccccc1)(c1ccccc1)c1ccccc1,36
4,ClC1(Cl)C(c2ccccc2)C1c1ccccc1 (configuration not stated),40.2
5,CN1C2CCC1CC(CCOC(c1ccc(F)cc1)c1ccc(F)cc1)C2 (configuration not stated),31.4
6,O=C(c1cc(Cl)cc(Cl)c1)N(C(=O)N1CCN(c2ccccc2)CC1)c1ccccc1,> 100
7,CCN(CC)C1Oc2cc3c(cc2C(c2ccc(OC)cc2)C1C)OCO3 (configuration not stated),38.6

# System: A549 NSCLC
# Assay: NCI tumour cell line growth inhibition, 48 h
row,SMILES,TGI [µM]
1,CC1(C)CN=C(c2ccc3c(c2)Cc2cc(C4=NCC(C)(C)N4)ccc2-3)N1,> 100
2,COc1cc(OCc2nc3ccccc3n3cccc23)cc(OC)c1OC,> 100
3,CC(=O)C(I(OS(=O)(=O)c1ccc(C)cc1)c1ccccc1)=P(c1ccccc1)(c1ccccc1)c1ccccc1,72.8
4,ClC1(Cl)C(c2ccccc2)C1c1ccccc1 (configuration not stated),> 100
5,CN1C2CCC1CC(CCOC(c1ccc(F)cc1)c1ccc(F)cc1)C2 (configuration not stated),35.7
6,O=C(c1cc(Cl)cc(Cl)c1)N(C(=O)N1CCN(c2ccccc2)CC1)c1ccccc1,> 100
7,CCN(CC)C1Oc2cc3c(cc2C(c2ccc(OC)cc2)C1C)OCO3 (configuration not stated),74

# System: A498 renal
# Assay: NCI tumour cell line growth inhibition, 48 h
row,SMILES,TGI [µM]
1,CC1(C)CN=C(c2ccc3c(c2)Cc2cc(C4=NCC(C)(C)N4)ccc2-3)N1,> 100
2,COc1cc(OCc2nc3ccccc3n3cccc23)cc(OC)c1OC,> 100
3,CC(=O)C(I(OS(=O)(=O)c1ccc(C)cc1)c1ccccc1)=P(c1ccccc1)(c1ccccc1)c1ccccc1,> 100
4,ClC1(Cl)C(c2ccccc2)C1c1ccccc1 (configuration not stated),> 100
5,CN1C2CCC1CC(CCOC(c1ccc(F)cc1)c1ccc(F)cc1)C2 (configuration not stated),36.1
6,O=C(c1cc(Cl)cc(Cl)c1)N(C(=O)N1CCN(c2ccccc2)CC1)c1ccccc1,> 100
7,CCN(CC)C1Oc2cc3c(cc2C(c2ccc(OC)cc2)C1C)OCO3 (configuration not stated),48.2

# System: SF-268 CNS
# Assay: NCI tumour cell line growth inhibition, 48 h
row,SMILES,TGI [µM]
1,CC1(C)CN=C(c2ccc3c(c2)Cc2cc(C4=NCC(C)(C)N4)ccc2-3)N1,> 100
2,COc1cc(OCc2nc3ccccc3n3cccc23)cc(OC)c1OC,> 100
3,CC(=O)C(I(OS(=O)(=O)c1ccc(C)cc1)c1ccccc1)=P(c1ccccc1)(c1ccccc1)c1ccccc1,80.4
4,ClC1(Cl)C(c2ccccc2)C1c1ccccc1 (configuration not stated),> 100
5,CN1C2CCC1CC(CCOC(c1ccc(F)cc1)c1ccc(F)cc1)C2 (configuration not stated),29.2
6,O=C(c1cc(Cl)cc(Cl)c1)N(C(=O)N1CCN(c2ccccc2)CC1)c1ccccc1,> 100
7,CCN(CC)C1Oc2cc3c(cc2C(c2ccc(OC)cc2)C1C)OCO3 (configuration not stated),50.1

# System: CCRF-CEM leukemia
# Assay: NCI tumour cell line growth inhibition, 48 h
row,SMILES,TGI [µM]
1,CC1(C)CN=C(c2ccc3c(c2)Cc2cc(C4=NCC(C)(C)N4)ccc2-3)N1,> 100
2,COc1cc(OCc2nc3ccccc3n3cccc23)cc(OC)c1OC,25.4
3,CC(=O)C(I(OS(=O)(=O)c1ccc(C)cc1)c1ccccc1)=P(c1ccccc1)(c1ccccc1)c1ccccc1,78.3
4,CN1C2CCC1CC(CCOC(c1ccc(F)cc1)c1ccc(F)cc1)C2 (configuration not stated),46.1
5,O=C(c1cc(Cl)cc(Cl)c1)N(C(=O)N1CCN(c2ccccc2)CC1)c1ccccc1,> 100
6,CCN(CC)C1Oc2cc3c(cc2C(c2ccc(OC)cc2)C1C)OCO3 (configuration not stated),34

# System: HOP-92 NSCLC
# Assay: NCI tumour cell line growth inhibition, 48 h
row,SMILES,TGI [µM]
1,CC1(C)CN=C(c2ccc3c(c2)Cc2cc(C4=NCC(C)(C)N4)ccc2-3)N1,> 100
2,COc1cc(OCc2nc3ccccc3n3cccc23)cc(OC)c1OC,> 100
3,CC(=O)C(I(OS(=O)(=O)c1ccc(C)cc1)c1ccccc1)=P(c1ccccc1)(c1ccccc1)c1ccccc1,54.7
4,CN1C2CCC1CC(CCOC(c1ccc(F)cc1)c1ccc(F)cc1)C2 (configuration not stated),34.3
5,O=C(c1cc(Cl)cc(Cl)c1)N(C(=O)N1CCN(c2ccccc2)CC1)c1ccccc1,> 100
6,CCN(CC)C1Oc2cc3c(cc2C(c2ccc(OC)cc2)C1C)OCO3 (configuration not stated),57.9

# System: HT29 colon
# Assay: NCI tumour cell line growth inhibition, 48 h
row,SMILES,TGI [µM]
1,CC1(C)CN=C(c2ccc3c(c2)Cc2cc(C4=NCC(C)(C)N4)ccc2-3)N1,> 100
2,COc1cc(OCc2nc3ccccc3n3cccc23)cc(OC)c1OC,> 100
3,CC(=O)C(I(OS(=O)(=O)c1ccc(C)cc1)c1ccccc1)=P(c1ccccc1)(c1ccccc1)c1ccccc1,49.6
4,CN1C2CCC1CC(CCOC(c1ccc(F)cc1)c1ccc(F)cc1)C2 (configuration not stated),19.1
5,O=C(c1cc(Cl)cc(Cl)c1)N(C(=O)N1CCN(c2ccccc2)CC1)c1ccccc1,> 100
6,CCN(CC)C1Oc2cc3c(cc2C(c2ccc(OC)cc2)C1C)OCO3 (configuration not stated),34.7
